The target in one data set is T1, hNav1.5 (Homo sapiens, UniProt Q14524).
T1 construct: host or cells: HEK293T
Put plainly: State-dependent blocking/unblocking kinetics of Nav1.5 (use-dependent block protocol, inactivation time constants). In kind it is cell-based. Here is the method: Manual whole-cell patch-clamp experiments were performed at room temperature, with equipment as described in previous studies. Pipettes were pulled from Clark borosilicate glass capillaries with inner filament (GC150F-10, Harvard Apparatus, Holliston, MA, USA) and had typical resistances of 2–3 MΩ. Recordings were performed with a WPC-100 resistive feedback amplifier (ESF electronic, Göttingen, Germany) or an Axopatch 200B amplifier (Axon Instruments—Molecular Devices, San Jose, CA, USA) connected to a Digidata 1322A interface driven by the pClamp 8.2 Clampex module (Axon Instruments, part of Molecular Devices, San Jose, CA, USA). For different types of ion channel, we applied specific voltage-clamp protocols as follows: • - For hERG, a standard two-step activation protocol was used: holding at −70 mV, a 100 ms step at −50 mV used as current reference for measurements, a 2 s depolarizing step at +40 mV, followed by a 2 s step at −50 mV to elicit the peak hERG current by rapid recovery from inactivation, repeated sweeps at 10 s intervals, plus specific protocols to assess the voltage dependence of activation and inactivation, as described in Thomet et al., 2021 [11]. • - For hKv7.1 + minK, a general two-step activation protocol was used: holding at −110 mV, a 250 ms step at −80 mV with a brief (50 ms) step at −90 mV at the middle to monitor seal quality, a 3000 ms depolarizing step at +60 mV, followed by a 1000 ms step at −50 mV; repeated sweeps at 20 s intervals. • - For hCav1.2, a pharmacology protocol with holding at −80 mV, a first 100 ms step at −50 mV and a second 200 ms step at 0 mV, repeated sweeps at 20 s intervals with drug application after 5 sweeps if current levels were steady, plus an activation–inactivation protocol with holding at −80 mV, 1000 ms depolarizing steps from −80 to +50 mV in 10 mV increments, followed by 250 ms steps at +10 mV and a return to −80 mV; 14 sweeps at 20 s intervals. • - For hNav1.5, multiple voltage protocols were used, including the following: • - A standard pharmacology protocol with holding at −90 mV, a 20 ms step at −110 mV for seal monitoring, a 40 ms activation step at −10 mV, and repeated sweeps at 1 s intervals.
To estimate state-specific blocking and unblocking kinetics, we applied, initially and during exposure to cenobamate, a special voltage protocol devised for use-dependent block, with repeated brief depolarizing pulses at −10 mV separated by variable intervals at a hyperpolarized potential (−120 mV), with durations between 5 and 50 ms, as described in Section 2. Recordings using this protocol in initial conditions and with cenobamate application are illustrated in Figure S3 of the Supplementary Materials. By noting with td = 10 ms and tr = 5–50 ms the times spent at a depolarized potential and at a resting hyperpolarized potential during each pulse, with on the fraction of available (non-inactivated or blocked) channels that produce the peak Na^+ current during each depolarizing pulse of the sequence, and with τi and τr, the apparent macroscopic time constants of inactivation and recovery from inactivation in control conditions (in the absence of a blocker), we obtained using several approximations a general recurrence formula that allows computation for each experiment of the recovery time constant, knowing the inactivation time constant (obtained by the monoexponential fit of the inactivation part of the recording during the depolarization pulse) and the decay in peak INa amplitude during pulse n relative to the peak amplitude during the preceding pulse (1 − on)/on−1 (detailed explanations in Section S1 of the Supplementary Materials): τr=tr/ln1−e^−td/τi−ln1−on/on−1

The conditions of data set [1]: cited from earlier work.

Values joined by “and” are separate entries in the source; they are usually repeats but may differ in a detail not shown here. Equal values may be shown once. Read-outs that look alike come from different tables or passages of the source.

T1 sequence (Q14524 whole entry): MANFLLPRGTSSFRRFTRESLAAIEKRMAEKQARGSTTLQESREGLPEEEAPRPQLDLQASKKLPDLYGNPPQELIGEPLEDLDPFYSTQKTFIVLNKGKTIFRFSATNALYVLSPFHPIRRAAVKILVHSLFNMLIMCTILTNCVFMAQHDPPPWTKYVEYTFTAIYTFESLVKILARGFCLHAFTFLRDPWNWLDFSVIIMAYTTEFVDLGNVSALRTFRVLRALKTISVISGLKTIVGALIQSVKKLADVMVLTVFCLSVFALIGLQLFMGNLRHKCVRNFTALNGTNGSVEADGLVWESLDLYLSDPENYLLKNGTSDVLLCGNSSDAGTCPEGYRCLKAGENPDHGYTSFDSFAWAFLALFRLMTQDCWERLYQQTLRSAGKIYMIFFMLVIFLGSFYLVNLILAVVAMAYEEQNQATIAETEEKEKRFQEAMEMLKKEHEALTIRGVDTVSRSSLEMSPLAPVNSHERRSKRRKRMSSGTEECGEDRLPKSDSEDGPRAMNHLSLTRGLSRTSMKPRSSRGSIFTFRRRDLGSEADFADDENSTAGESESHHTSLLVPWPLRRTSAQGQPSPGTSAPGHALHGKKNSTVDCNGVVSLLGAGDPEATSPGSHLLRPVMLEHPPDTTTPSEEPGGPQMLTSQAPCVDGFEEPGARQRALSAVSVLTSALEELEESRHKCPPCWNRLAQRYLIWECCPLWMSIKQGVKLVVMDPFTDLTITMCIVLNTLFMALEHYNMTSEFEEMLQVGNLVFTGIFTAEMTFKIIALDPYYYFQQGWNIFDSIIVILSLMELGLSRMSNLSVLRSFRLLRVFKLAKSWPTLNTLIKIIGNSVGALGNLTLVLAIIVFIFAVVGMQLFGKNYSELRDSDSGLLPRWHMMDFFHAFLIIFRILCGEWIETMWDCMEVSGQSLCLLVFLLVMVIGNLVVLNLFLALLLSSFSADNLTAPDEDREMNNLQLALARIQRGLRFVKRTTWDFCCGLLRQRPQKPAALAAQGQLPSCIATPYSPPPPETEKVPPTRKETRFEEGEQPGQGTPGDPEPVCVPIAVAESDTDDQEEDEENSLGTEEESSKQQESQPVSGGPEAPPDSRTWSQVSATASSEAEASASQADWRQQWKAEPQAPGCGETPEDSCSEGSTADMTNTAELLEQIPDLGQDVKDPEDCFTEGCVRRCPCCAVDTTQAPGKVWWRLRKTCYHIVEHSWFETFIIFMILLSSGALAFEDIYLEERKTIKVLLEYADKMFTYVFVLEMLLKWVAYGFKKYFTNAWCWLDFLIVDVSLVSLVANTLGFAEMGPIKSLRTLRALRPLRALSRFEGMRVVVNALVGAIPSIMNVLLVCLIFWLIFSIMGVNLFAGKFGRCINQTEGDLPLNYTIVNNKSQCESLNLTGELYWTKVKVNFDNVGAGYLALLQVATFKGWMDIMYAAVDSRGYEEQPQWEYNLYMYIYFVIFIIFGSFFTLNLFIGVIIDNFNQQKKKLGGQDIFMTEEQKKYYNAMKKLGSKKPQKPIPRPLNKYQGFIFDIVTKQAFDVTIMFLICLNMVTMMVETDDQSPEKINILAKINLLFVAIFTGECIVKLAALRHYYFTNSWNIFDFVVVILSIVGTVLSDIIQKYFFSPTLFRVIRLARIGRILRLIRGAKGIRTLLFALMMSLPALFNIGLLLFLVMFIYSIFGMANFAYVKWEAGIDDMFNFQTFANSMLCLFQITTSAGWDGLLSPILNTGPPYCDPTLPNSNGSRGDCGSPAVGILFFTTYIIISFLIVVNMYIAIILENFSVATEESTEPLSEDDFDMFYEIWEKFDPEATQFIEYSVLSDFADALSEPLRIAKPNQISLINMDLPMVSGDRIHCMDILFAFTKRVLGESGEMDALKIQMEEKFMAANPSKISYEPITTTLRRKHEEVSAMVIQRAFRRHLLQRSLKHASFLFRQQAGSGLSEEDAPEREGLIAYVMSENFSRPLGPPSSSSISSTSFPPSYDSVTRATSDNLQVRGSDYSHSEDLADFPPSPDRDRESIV

`NC(=O)O[C@@H](Cn1ncnn1)c1ccccc1Cl` [cenobamate]: on hNav1.5, the “kib (blocking rate, inactivated conformation)” value came out at 669800 M⁻¹ s⁻¹; the “kib (model script)” value was 669800 M⁻¹ s⁻¹; the “kib^−1 (unblocking rate, inactivated conformation)” value turned out to be 0.1825 ms^−1; the “kob (blocking rate, open conformation)” value was determined as 2.15e+06 M⁻¹ s⁻¹. In addition, on hNav1.5, the “kob (model script)” value was 2.15e+06 M⁻¹ s⁻¹ and the “kob^−1 (unblocking rate, open conformation)” value is reported as 0.189 ms^−1. Besides, the Kd (commonly the concentration at which binding is half-saturated) at hNav1.5 (Kd (I)) was determined as 273 µM. The Kd on hNav1.5 (Kd (O), open conformation, assumed equivalent to IC50 on peak INa) is 87.8 µM. In addition, the “1/τib (kib × [D] + kib^−1)” value at hNav1.5 ([D] 98.44 µM) worked out at 0.2484 ms^−1. Besides, on hNav1.5 (blocking/unblocking time constant of inactivated conformation, cenobamate estimated 98.44 µM, per experiment and mean ± SD), the “est. τib” value was 4.08 ms and 3.83 ms and 4.94 ms and 3.25 ms. At hNav1.5 (cenobamate 200 µM, initial 0.94), the “Rate (1/τ) with cenobamate” value came to 1.56 ms^−1. The “τi+ob” value on hNav1.5 (use-dependent block protocol during cenobamate (estimated 98.44 µM), per experiment and mean ± SD) was 2.23 ms and 3.04 ms and 2.94 ms and 1.73 ms. For the same compound, the “peak plasma therapeutic concentration (Cmax)” value in data set [1] (400 mg/day, study YKP3089C018, ref [5] p. 13) is 45500 ng/mL. For the same compound, the Cmax in data set [1] (read-out: Cmax (maximal effective therapeutic plasma concentration), 400 mg/day, ref [5] p. 13 / p. 10) is 170 µM. The Cmax in data set [1] (read-out: Cmax (model script), value entered in C++ script, ref [5]) is 170 µM.

The record behind these values is article PMC11674187, “Inhibitory Effects of Cenobamate on Multiple Human Cardiac Ion Channels and Possible Arrhythmogenic Consequences” (Biomolecules, 2024).
